This experiment deals with T1, tyrosinase (mushroom) (Agaricus bisporus, UniProt C7FF04).
T1 construct: gene PPO3
Put plainly: L-dopa oxidation assay at […] nm with Lineweaver-Burk kinetics (Ki […], Kis […]); static fluorescence quenching, CD. The class given is biochemical.

Structures are written as SMILES.

T1 sequence (C7FF04 2-392): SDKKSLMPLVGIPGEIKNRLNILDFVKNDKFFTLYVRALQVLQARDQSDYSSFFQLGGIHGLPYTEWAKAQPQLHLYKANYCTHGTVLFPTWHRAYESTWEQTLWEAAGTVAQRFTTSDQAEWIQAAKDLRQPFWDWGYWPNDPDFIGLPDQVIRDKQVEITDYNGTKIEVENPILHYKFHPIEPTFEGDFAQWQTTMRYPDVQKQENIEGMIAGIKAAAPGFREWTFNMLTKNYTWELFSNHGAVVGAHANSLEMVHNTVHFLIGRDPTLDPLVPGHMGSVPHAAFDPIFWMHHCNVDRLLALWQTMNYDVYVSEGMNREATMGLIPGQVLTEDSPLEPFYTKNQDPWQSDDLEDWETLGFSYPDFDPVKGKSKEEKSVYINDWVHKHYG

As a reminder, the IC50 is the midpoint of a concentration-inhibition curve. The low end stands for greater potency, the high end for weaker potency. On to `O=c1c(O)c(-c2ccc(O)c(O)c2)oc2cc(O)c(O)c(O)c12` [quercetagetin, 3,3′,4′,5,6,7-hexahydroxyflavone], for which the IC50 was found to be 190 ± 10 µM.
